Measurements taken from ChEMBL document CHEMBL1142171, “Identification and structural characterization of I84C and I84A mutations that are associated with high-level resistance to human immunodeficiency virus protease inhibitors and impair viral replication” (2007).

Legend:
Type in all cases: functional, HEK293
[1] = test system: Human immunodeficiency virus 1; assay: Antiviral activity against HIV1 C2 isolate with protease I84C mutation in HEK 293 cells relative to wild type
[2] = test system: Human immunodeficiency virus 1; assay: Antiviral activity against HIV1 C3 isolate with protease I84C mutation in HEK 293 cells relative to wild type
[3] = test system: Human immunodeficiency virus 1; assay: Antiviral activity against HIV1 A4 isolate with protease I84A mutation in HEK 293 cells relative to wild type
[4] = test system: Human immunodeficiency virus 1; assay: Antiviral activity against HIV1 A5 isolate with protease I84A mutation in HEK 293 cells relative to wild type
[5] = test system: Human immunodeficiency virus 1; assay: Antiviral activity against HIV1 C7 isolate with protease I84C mutation in HEK 293 cells relative to wild type
[6] = test system: Human immunodeficiency virus 1; assay: Resistance to HIV1 with protease 46I, 54V and I84V mutation in HEK 293 cells relative to similar background
[7] = test system: Human immunodeficiency virus 1; assay: Antiviral activity against HIV1 C1 isolate with protease I84C mutation in HEK 293 cells relative to wild type
[8] = test system: Human immunodeficiency virus 1; assay: Antiviral activity against HIV1 A3 isolate with protease I84A mutation in HEK 293 cells relative to wild type
[9] = test system: Human immunodeficiency virus 1; assay: Resistance to HIV1 with protease 46I, 54I and I84A mutation in HEK 293 cells relative to similar background
[10] = test system: Human immunodeficiency virus 1; assay: Antiviral activity against HIV1 A6 isolate with protease I84A mutation in HEK 293 cells relative to wild type
[11] = test system: Human immunodeficiency virus 1; assay: Antiviral activity against HIV1 C8 isolate with protease I84C mutation in HEK 293 cells relative to wild type
[12] = test system: Human immunodeficiency virus 1; assay: Antiviral activity against HIV1 A9 isolate with protease I84A mutation in HEK 293 cells relative to wild type
[13] = test system: Human immunodeficiency virus 1; assay: Resistance to HIV1 with protease 46I/L, 54I and I84C mutation in HEK 293 cells relative to similar background
[14] = test system: Human immunodeficiency virus 1; assay: Resistance to HIV1 with protease 46M, 54I and I84V mutation in HEK 293 cells relative to similar background
[15] = test system: Human immunodeficiency virus 1; assay: Antiviral activity against HIV1 A2 isolate with protease I84A mutation in HEK 293 cells relative to wild type
[16] = test system: Human immunodeficiency virus 1; assay: Antiviral activity against HIV1 A11 isolate with protease I84A mutation in HEK 293 cells relative to wild type
[17] = test system: Human immunodeficiency virus 1; assay: Resistance to HIV1 with protease 46I, 54M/V and I84A mutation in HEK 293 relative to similar background
[18] = test system: Human immunodeficiency virus 1; assay: Resistance to HIV1 with protease 46I, 54I and I84V mutation in HEK 293 cells relative to similar background
[19] = test system: Human immunodeficiency virus 1; assay: Antiviral activity against HIV1 C4 isolate with protease I84C mutation in HEK 293 cells relative to wild type
[20] = test system: Human immunodeficiency virus 1; assay: Antiviral activity against HIV1 A15 isolate with protease I84A mutation in HEK 293 cells relative to wild type
[21] = test system: Human immunodeficiency virus 1; assay: Antiviral activity against HIV1 A10 isolate with protease I84A mutation in HEK 293 cells relative to wild type
[22] = test system: Human immunodeficiency virus 1; assay: Antiviral activity against HIV1 A1 isolate with protease I84A mutation in HEK 293 cells relative to wild type
[23] = test system: Human immunodeficiency virus 1; assay: Antiviral activity against HIV1 A7 isolate with protease I84A mutation in HEK 293 cells relative to wild type
[24] = test system: Human immunodeficiency virus 1; assay: Antiviral activity against HIV1 A14 isolate with protease I84A mutation in HEK 293 cells relative to wild type
[25] = test system: Human immunodeficiency virus 1; assay: Antiviral activity against HIV1 C5 isolate with protease I84C mutation in HEK 293 cells relative to wild type
[26] = test system: Human immunodeficiency virus 1; assay: Antiviral activity against HIV1 A8 isolate with protease I84A mutation in HEK 293 cells relative to wild type
[27] = test system: Human immunodeficiency virus 1; assay: Antiviral activity against HIV1 C10 isolate with protease I84C mutation in HEK 293 cells relative to wild type
[28] = test system: Human immunodeficiency virus 1; assay: Antiviral activity against HIV1 A13 isolate with protease I84A mutation in HEK 293 cells relative to wild type
[29] = test system: Human immunodeficiency virus 1; assay: Antiviral activity against HIV1 A12 isolate with protease I84A mutation in HEK 293 cells relative to wild type
[30] = test system: Human immunodeficiency virus 1; assay: Resistance to HIV1 with protease 46M, 54I and I84C mutation in HEK 293 cells relative to similar background
[31] = test system: Human immunodeficiency virus 1; assay: Antiviral activity against HIV1 C6 isolate with protease I84C mutation in HEK 293 cells relative to wild type
[32] = test system: Human immunodeficiency virus 1; assay: Antiviral activity against HIV1 C9 isolate with protease I84C mutation in HEK 293 cells relative to wild type
[33] = test system: Human immunodeficiency virus 1; assay: Antiviral activity against HIV1 C11 isolate with protease I84C mutation in HEK 293 cells relative to wild type

Row | SMILES | Fold change [2] | Fold change [3] | Fold change [4] | Fold change [5] | Fold change [6] | Fold change [7] | Fold change [8] | Fold change [9] | Fold change [10] | Fold change [11] | Fold change [12] | Fold change [13] | Fold change [16] | Fold change [20] | Fold change [21] | Fold change [22] | Fold change [24] | Fold change [27] | Fold change [28] | Fold change [29] | other results
1 | CC(C)(C)NC(=O)[C@@H]1C[C@@H]2CCCC[C@@H]2CN1C[C@@H](O)[C@H](Cc1ccccc1)NC(=O)[C@H](CC(N)=O)NC(=O)c1ccc2ccccc2n1 | 56 | 241 | 256 | 1000 | 20 | 6.1 | 365 | 261 | 24 | 68 | 1000 | 80 | 1000 | 1000 | 1000 | 1000 | 69 | 242 | 1000 | 1000 | Fold change [1]: 14; Fold change [14]: 4.3; Fold change [15]: 141; Fold change [17]: >1000; Fold change [18]: 4.3; Fold change [19]: 92; Fold change [23]: 1000; Fold change [25]: 41; Fold change [26]: 265.5; Fold change [30]: 56; Fold change [31]: 24
2 | CC(C)CN(C[C@@H](O)[C@H](Cc1ccccc1)NC(=O)O[C@H]1CCOC1)S(=O)(=O)c1ccc(N)cc1 | 8.6 | 32 | 28 | 23 | 36 | 1.7 | 43 | 33 | 21 | 12 | 33 | 21 | 47 | 30 | 400 | 32 | 141 | 53 | 43 | 400 | Fold change [32]: 30; Fold change [1]: 5.4; Fold change [14]: 4; Fold change [15]: 31; Fold change [17]: 74; Fold change [18]: 9; Fold change [19]: 10; Fold change [23]: 74; Fold change [33]: 18; Fold change [25]: 20; Fold change [26]: 252; Fold change [30]: 8.6; Fold change [31]: 64
3 | CC(C)(C)NC(=O)[C@@H]1CN(Cc2cccnc2)CCN1C[C@@H](O)C[C@@H](Cc1ccccc1)C(=O)N[C@H]1c2ccccc2C[C@H]1O.O | 4.1 | 58 | 53 | 42 | 19 | 1.2 | 78 | 73 | 38 | 6.4 | 138 | 8.6 | 73 | 118 | 400 | 73 | 152 | 5.5 | 178 | 400 | Fold change [32]: 5.5; Fold change [1]: 1.3; Fold change [14]: 2.4; Fold change [15]: 27; Fold change [17]: 178; Fold change [18]: 9.1; Fold change [19]: 11; Fold change [23]: 92; Fold change [33]: 5.7; Fold change [25]: 3.8; Fold change [26]: 400; Fold change [30]: 4.1; Fold change [31]: 63
4 | Cc1c(O)cccc1C(=O)N[C@@H](CSc1ccccc1)[C@H](O)CN1C[C@H]2CCCC[C@H]2C[C@H]1C(=O)NC(C)(C)C | 74 | 600 | 600 | 600 | 16 | 15 | 600 | >600 | 64 | 86 | 600 | 115 | 600 | 600 | 600 | 600 | 210 | 286 | 196 | 600 | Fold change [32]: 70; Fold change [1]: 59; Fold change [14]: 4; Fold change [15]: 600; Fold change [17]: >600; Fold change [18]: 9; Fold change [19]: 395; Fold change [23]: 600; Fold change [33]: 91; Fold change [25]: 51; Fold change [26]: 600; Fold change [30]: 74; Fold change [31]: 144
5 | COC(=O)N[C@H](C(=O)N[C@@H](Cc1ccccc1)[C@@H](O)CN(Cc1ccc(-c2ccccn2)cc1)NC(=O)[C@@H](NC(=O)OC)C(C)(C)C)C(C)(C)C [ATAZANAVIR] | – | – | – | – | – | – | – | – | – | – | 52 | – | 63 | 253 | 700 | 38 | 21 | 19 | 700 | 25 | Fold change [32]: 9.1; Fold change [33]: 5
6 | Cc1cccc(C)c1OCC(=O)N[C@@H](Cc1ccccc1)[C@@H](O)C[C@H](Cc1ccccc1)NC(=O)[C@H](C(C)C)N1CCCNC1=O [LOPINAVIR] | 1.6 | 14 | 9 | 7.2 | 80 | 0.4 | 11 | 14 | 14 | 2.9 | 16 | 3.1 | 14 | 75 | 59 | 10 | 104 | 5.1 | 50 | 210 | Fold change [32]: 2.3; Fold change [14]: 2.8; Fold change [17]: 75; Fold change [18]: 8.9; Fold change [19]: 3.1; Fold change [23]: 124; Fold change [33]: 2.8; Fold change [25]: 3.1; Fold change [26]: 94; Fold change [30]: 2.2; Fold change [31]: 47
7 | CC(C)c1nc(CN(C)C(=O)N[C@H](C(=O)N[C@@H](Cc2ccccc2)C[C@H](O)[C@H](Cc2ccccc2)NC(=O)OCc2cncs2)C(C)C)cs1 [RITONAVIR] | 10 | 42 | 54 | 60 | 49 | 1.6 | 76 | 74 | 34 | 14 | 167 | 18 | 73 | 400 | 400 | 60 | 105 | 29 | 400 | 400 | Fold change [32]: 20; Fold change [1]: 8.6; Fold change [14]: 6.7; Fold change [15]: 85; Fold change [17]: >400; Fold change [18]: 11; Fold change [19]: 9.1; Fold change [23]: 141; Fold change [33]: 15; Fold change [25]: 15; Fold change [26]: 86; Fold change [30]: 10; Fold change [31]: 22
